“Also recorded” adds a separate entry of the source. Read-outs that look alike come from different tables or passages of the source.
Key:
[1] = system: HIV-1; test: microbe, parasite or virus in culture; conditions: Human immunodeficiency virus 1, MAGI
[2] = target: HIV-1 integrase (Human immunodeficiency virus type 1 group M subtype B, UniProt P04585); test: Inhibition of the strand transfer; format: biochemical
[3] = target: T1, UGT 1A9 (Homo sapiens, UniProt O60656); test: UGT substrate assay
T1 sequence (O60656 26-530): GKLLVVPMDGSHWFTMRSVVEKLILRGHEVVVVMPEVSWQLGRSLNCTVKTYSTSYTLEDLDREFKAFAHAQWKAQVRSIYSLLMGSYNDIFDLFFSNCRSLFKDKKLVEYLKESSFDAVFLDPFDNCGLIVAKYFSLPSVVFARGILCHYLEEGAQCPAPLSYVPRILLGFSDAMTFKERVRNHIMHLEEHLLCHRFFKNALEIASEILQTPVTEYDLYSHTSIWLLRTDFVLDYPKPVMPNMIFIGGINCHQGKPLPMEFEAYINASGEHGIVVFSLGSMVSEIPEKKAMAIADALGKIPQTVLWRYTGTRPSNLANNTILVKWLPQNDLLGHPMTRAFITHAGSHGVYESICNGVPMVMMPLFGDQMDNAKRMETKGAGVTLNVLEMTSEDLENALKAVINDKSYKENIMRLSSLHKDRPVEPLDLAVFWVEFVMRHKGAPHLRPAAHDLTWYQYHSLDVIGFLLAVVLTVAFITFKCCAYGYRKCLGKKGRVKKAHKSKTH

[4] = target: CYP3A4 (Homo sapiens, UniProt P08684); test: CYP inhibition/activation in pooled human liver microsomes; format: in vitro ADME
Sequence of CYP3A4 (P08684 whole entry): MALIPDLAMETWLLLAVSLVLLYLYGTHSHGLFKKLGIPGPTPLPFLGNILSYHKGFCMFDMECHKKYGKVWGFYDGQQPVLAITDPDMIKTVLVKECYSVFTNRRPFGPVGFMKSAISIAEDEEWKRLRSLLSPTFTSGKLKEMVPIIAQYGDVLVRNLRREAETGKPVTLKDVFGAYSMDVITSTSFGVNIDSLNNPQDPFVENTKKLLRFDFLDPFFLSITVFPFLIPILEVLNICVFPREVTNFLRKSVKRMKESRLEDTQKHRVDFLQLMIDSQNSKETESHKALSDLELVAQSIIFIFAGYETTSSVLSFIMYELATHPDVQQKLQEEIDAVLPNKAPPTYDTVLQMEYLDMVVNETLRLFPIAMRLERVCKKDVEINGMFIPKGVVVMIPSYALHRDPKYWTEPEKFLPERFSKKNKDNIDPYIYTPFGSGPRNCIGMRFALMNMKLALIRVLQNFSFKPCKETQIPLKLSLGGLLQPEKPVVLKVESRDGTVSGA

[5] = target: T2, UGT 2B7 (Homo sapiens, UniProt P16662); test: UGT substrate assay
T2 sequence (P16662 24-529): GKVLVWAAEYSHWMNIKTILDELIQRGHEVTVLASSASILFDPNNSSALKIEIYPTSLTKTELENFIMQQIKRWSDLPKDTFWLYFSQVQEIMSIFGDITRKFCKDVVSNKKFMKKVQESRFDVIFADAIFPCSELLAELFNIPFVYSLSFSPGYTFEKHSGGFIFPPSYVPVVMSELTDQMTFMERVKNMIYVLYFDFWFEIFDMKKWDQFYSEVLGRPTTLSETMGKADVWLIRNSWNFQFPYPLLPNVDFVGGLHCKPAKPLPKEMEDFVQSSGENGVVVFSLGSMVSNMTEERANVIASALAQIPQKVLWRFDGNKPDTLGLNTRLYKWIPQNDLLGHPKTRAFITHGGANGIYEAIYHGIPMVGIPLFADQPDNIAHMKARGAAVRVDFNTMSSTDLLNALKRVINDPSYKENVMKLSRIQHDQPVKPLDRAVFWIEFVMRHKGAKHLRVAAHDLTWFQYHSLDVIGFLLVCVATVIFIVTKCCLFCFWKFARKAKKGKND

[6] = Stability in pooled human liver microsomes; format: in vitro ADME
[7] = target: T3, UGT 1A6 (Homo sapiens, UniProt P19224); test: UGT substrate assay
T3 sequence (P19224 27-532): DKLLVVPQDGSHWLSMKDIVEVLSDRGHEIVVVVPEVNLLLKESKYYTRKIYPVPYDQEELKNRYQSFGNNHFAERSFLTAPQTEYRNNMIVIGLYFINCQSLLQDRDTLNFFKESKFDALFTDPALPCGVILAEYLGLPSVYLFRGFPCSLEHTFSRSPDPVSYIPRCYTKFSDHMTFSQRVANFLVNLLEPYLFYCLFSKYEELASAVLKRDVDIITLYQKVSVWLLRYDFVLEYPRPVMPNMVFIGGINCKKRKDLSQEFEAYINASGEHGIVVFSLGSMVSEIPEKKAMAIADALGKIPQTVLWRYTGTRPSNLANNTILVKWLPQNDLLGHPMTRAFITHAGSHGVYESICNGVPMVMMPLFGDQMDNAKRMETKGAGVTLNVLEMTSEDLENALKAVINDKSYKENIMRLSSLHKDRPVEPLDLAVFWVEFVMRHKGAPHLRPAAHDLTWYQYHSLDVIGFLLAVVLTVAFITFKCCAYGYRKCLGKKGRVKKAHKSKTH

[8] = target: T4, UGT 1A1 (Homo sapiens, UniProt P22309); test: UGT substrate assay
T4 sequence (P22309 26-533): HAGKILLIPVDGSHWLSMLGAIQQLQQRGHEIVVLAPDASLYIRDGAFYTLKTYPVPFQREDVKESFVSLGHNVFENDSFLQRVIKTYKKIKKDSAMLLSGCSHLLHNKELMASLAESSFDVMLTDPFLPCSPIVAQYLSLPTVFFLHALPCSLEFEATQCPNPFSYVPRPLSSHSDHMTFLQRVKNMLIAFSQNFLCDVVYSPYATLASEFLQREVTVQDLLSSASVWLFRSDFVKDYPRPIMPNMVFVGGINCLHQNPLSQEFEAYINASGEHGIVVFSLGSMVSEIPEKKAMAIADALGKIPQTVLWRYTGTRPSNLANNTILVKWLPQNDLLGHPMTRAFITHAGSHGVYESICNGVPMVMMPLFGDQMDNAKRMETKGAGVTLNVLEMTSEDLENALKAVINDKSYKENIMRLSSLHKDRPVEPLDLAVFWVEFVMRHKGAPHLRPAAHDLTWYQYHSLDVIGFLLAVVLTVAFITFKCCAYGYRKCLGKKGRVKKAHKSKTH

[9] = target: T5, CYP2C8 (Homo sapiens, UniProt P10632); test: CYP inhibition/activation in pooled human liver microsomes; format: in vitro ADME
T5 sequence (P10632 1-490): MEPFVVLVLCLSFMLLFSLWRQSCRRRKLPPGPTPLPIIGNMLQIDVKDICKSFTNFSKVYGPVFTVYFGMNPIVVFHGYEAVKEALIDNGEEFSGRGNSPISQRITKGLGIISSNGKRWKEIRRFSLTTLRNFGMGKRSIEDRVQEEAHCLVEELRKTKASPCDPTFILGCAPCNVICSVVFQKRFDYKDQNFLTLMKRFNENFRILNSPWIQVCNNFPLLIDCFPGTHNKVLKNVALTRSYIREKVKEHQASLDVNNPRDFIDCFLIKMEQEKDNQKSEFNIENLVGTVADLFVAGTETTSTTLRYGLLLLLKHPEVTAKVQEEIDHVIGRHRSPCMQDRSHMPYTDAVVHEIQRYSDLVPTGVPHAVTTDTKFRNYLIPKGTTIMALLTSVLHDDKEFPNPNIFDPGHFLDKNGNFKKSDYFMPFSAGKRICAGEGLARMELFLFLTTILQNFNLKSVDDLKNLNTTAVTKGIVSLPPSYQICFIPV

[10] = target: CYP2D6 (Homo sapiens, UniProt P10635); test: as above; format: in vitro ADME
Sequence of CYP2D6 (P10635 whole entry): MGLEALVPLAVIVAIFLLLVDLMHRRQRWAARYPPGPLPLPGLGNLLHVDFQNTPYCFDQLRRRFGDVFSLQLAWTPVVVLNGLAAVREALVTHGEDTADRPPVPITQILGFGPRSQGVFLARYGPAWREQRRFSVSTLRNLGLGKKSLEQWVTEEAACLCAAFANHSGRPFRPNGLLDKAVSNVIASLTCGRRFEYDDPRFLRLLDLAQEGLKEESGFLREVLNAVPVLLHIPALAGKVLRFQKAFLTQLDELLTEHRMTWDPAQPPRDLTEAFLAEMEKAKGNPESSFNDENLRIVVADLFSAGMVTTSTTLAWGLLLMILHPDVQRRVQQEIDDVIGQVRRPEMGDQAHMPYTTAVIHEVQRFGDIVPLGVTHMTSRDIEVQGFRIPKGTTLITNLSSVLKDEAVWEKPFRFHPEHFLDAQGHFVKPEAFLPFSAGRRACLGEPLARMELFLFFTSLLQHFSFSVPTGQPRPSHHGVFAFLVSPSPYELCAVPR

[11] = target: T6, UGT 1A4 (Homo sapiens, UniProt P22310); test: UGT substrate assay
T6 sequence (P22310 29-534): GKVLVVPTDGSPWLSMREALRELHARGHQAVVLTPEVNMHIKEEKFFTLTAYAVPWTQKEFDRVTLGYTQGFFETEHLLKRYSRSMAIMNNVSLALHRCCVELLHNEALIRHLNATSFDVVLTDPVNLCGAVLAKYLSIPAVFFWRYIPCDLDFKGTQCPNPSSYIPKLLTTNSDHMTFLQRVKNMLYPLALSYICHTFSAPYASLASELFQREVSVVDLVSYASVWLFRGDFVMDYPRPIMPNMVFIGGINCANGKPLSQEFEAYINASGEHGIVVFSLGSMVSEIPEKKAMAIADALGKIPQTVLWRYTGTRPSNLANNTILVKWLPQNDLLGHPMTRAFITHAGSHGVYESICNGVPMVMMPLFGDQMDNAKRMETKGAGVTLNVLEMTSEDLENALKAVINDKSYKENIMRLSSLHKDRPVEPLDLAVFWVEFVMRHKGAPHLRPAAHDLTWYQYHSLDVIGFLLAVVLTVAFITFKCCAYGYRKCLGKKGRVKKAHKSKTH

[12] = target: T4, UGT 1A1; conditions: cited from earlier work

O=C(O)C(=O)C=C(O)c1cc(Cc2ccc(F)cc2F)cn(Cc2ccc(F)cc2F)c1=O [Entry 11, 4-(1,5-bis(2,4-difluorobenzyl)-2-oxo-1,2-dihydropyridin-3-yl)-4-hydroxy-2-oxobut-3-enoic acid]
EC50 [1]: 300 nM | EC50 ([1]; read-out: anti-HIV-1 EC50): ≤ 500 nM | IC50 [2]: 5.5 ± 1.5 nM

O=C(O)/C(O)=C/C(=O)c1cc(Cc2ccc(F)cc2F)cn(Cc2ccccc2F)c1=O [Compound 2, 4-(5-(2,4-difluorobenzyl)-1-(2-fluoro-benzyl)-2-oxo-1,2-dihydro-pyridin-3-yl)-2-hydroxy-4-oxobut-2-enoic acid]
substrate activity towards UGT 1A9 [3]: not a substrate | activation of CYP3A4 [4]: did not exhibit any activation | inhibition of CYP3A4 [4]: not an inhibitor | EC50 ([1]; read-out: anti-HIV-1 EC50): ≤ 500 nM | substrate activity towards UGT 2B7 [5]: not a substrate | stability in pooled human liver microsomes [6]: good stability; also recorded: relatively stable | substrate activity towards UGT 1A6 [7]: not a substrate | substrate activity towards UGT 1A1 [8]: not a substrate | activation of CYP2C8 [9]: did not exhibit any activation | activation of CYP2D6 [10]: did not exhibit any activation | inhibition of CYP2D6 [10]: not an inhibitor | substrate activity towards UGT 1A4 [11]: not a substrate

C[C@@H]1CCO[C@H]2Cn3cc(C(=O)NCc4ccc(F)cc4F)c(=O)c(O)c3C(=O)N12 [S/GSK 1349572]
substrate activity towards UGT 1A1 ([12]; primary route of metabolism and clearance is glucuronidation): substrate for UGT 1A1

CC(C)OC(=O)/C(O)=C/C(=O)c1cc(Cc2ccc(F)cc2F)cn(Cc2ccccc2F)c1=O [Compound 10]
conversion to compound 2 by hydrolysis in human liver microsomes ([6]; in 15 minutes): 100% | IC50 [2]: > 475 nM

Cc1nnc(C(=O)NC(C)(C)c2nc(C(=O)NCc3ccc(F)cc3)c(O)c(=O)n2C)o1 [raltegravir, reference compound]
EC50 ([1]; read-out: anti-HIV-1 EC50): < 6 nM | major mechanism of clearance in humans ([12]; humans): UGT 1A1-mediated glucuronidation

Source: publication PMC3274775 (ACS medicinal chemistry letters, 2011)
